{
  "source": "paper PMC7516806",
  "about": "“Hybrid Antimicrobial Peptide Targeting Staphylococcus aureus and Displaying Anti-infective Activity in a Murine Model” (Frontiers in Microbiology, 2020)",
  "key": {"[1]": {"system": "L. plantarum 8014", "test": "MIC, modified microtiter dilution", "type": "cell-based, Lactobacillus plantarum", "conditions": "2–7 × 10^5 CFU/ml, 37°C, 24 h, no turbidity, at least three independent repeats", "description": "(§1) The experiment was repeated at least three times independently."}, "[2]": {"system": "L. rhamnosus 1.0385", "test": "MIC, modified microtiter dilution", "type": "cell-based, Lactobacillus rhamnosus", "conditions": "2–7 × 10^5 CFU/ml, 37°C, 24 h, no turbidity, at least three independent repeats", "description": "as §1"}, "[3]": {"system": "L. rhamnosus 7469", "test": "MIC, modified microtiter dilution", "type": "cell-based, Lactobacillus rhamnosus", "conditions": "2–7 × 10^5 CFU/ml, 37°C, 24 h, no turbidity, at least three independent repeats", "description": "as §1"}, "[4]": {"system": "L. rhamnosus 1.0911", "test": "MIC, modified microtiter dilution", "type": "cell-based, Lactobacillus rhamnosus", "conditions": "2–7 × 10^5 CFU/ml, 37°C, 24 h, no turbidity, at least three independent repeats", "description": "as §1"}, "[5]": {"system": "L. rhamnosus 1.0936", "test": "MIC, modified microtiter dilution", "type": "cell-based, Lactobacillus rhamnosus", "conditions": "2–7 × 10^5 CFU/ml, 37°C, 24 h, no turbidity, at least three independent repeats", "description": "as §1"}, "[6]": {"system": "S. aureus 25923", "test": "MIC, modified microtiter dilution", "type": "cell-based, Staphylococcus aureus", "conditions": "MHB, 2–7 × 10^5 CFU/ml, 37°C, 24 h, no turbidity, at least three independent repeats", "description": "as §1"}, "[7]": {"system": "S. aureus 29213", "test": "MIC, modified microtiter dilution", "type": "cell-based, Staphylococcus aureus", "conditions": "MHB, 2–7 × 10^5 CFU/ml, 37°C, 24 h, no turbidity, at least three independent repeats", "description": "as §1"}, "[8]": {"system": "P. aeruginosa 27853", "test": "MIC, modified microtiter dilution", "type": "cell-based, Pseudomonas aeruginosa", "conditions": "MHB, 2–7 × 10^5 CFU/ml, 37°C, 24 h, no turbidity, at least three independent repeats", "description": "as §1"}, "[9]": {"system": "human red blood cells (hRBCs)", "test": "Hemolysis assay", "type": "cell-based", "conditions": "1.5 h, 37°C, absorbance 570 nm; 0.1% Triton X-100 positive control", "protocol": "The cytotoxicity of peptides was determined by healthy human erythrocytes and the murine macrophage cell line RAW 264.7 via a hemolysis assay and MTT dye reduction assay, respectively ([Wang et al., 2018]). In the hemolysis assay, fresh hRBCs from healthy people were centrifuged for 5 min at 1,000 × g and then washed three times with PBS (pH = 7.2). The 100 μL erythrocyte suspension and peptides were incubated for 1.5 h in an incubator at 37°C. The 96-well plates were centrifuged at 1,000 × g for 5 min, and the supernatants were carefully aspirated. The absorbance at 570 nm indicated the leakage of hemoglobin. The hRBCs in the PBS sample was used as the negative control, and 0.1% Triton X-100 addition served as the positive control. In the MTT dye reduction assay, 1.0–2.0 × 10^5 cells were plated in 96-well plates and then treated with various concentrations of peptides for 4 h at 37°C in a 5% CO2 incubator. Subsequently, 50 μL of MTT was added to the plated cells at a final concentration of 0.5 mg/mL and incubated for 4 h. Then, the cells were centrifuged at 1000 × g for 5 min, and the supernatants were discarded. Formazan crystals were dissolved in 150 μL of DMSO, and the OD570 nm was measured using a microplate reader (TECAN GENios F129004; TECAN, Austria). The experiment was repeated three times independently."}, "[10]": {"system": "S. pullorum 7913", "test": "MIC, modified microtiter dilution", "type": "cell-based, Salmonella pullorum", "conditions": "MHB, 2–7 × 10^5 CFU/ml, 37°C, 24 h, no turbidity, at least three independent repeats", "description": "as §1"}, "[11]": {"system": "E. coli K88", "conditions": "MHB, 2–7 × 10^5 CFU/ml, 37°C, 24 h, no turbidity, at least three independent repeats", "description": "(§2) The bacterial strains Escherichia coli (E. coli) ATCC 25922, E. coli K88, E. coli K99, Pseudomonas aeruginosa (P. aeruginosa) ATCC 27853, Escherichia coli (E. coli) UB1005, Salmonella typhimurium 14028, Salmonella pullorum (S. pullorum) C7913, S. typhimurium C7731, S. aureus ATCC 29213, MRSA ATCC 43300, and S. aureus ATCC 25923 were obtained from the College of Veterinary Medicine, Northeast Agricultural University, China. Lactobacillus plantarum (L. plantarum) 8014, Lactobacillus rhamnosus (L. rhamnosus) 7469, L. rhamnosus 1.0911, L. rhamnosus 1.0936, and L. rhamnosus 1.0385 were obtained from the Key Laboratory of Food College, Northeast Agricultural University, China.\n(§3) As in a previous study, the antimicrobial activities of the AMPs were investigated using a modified standard microtiter dilution method ([Dong et al., 2014]). The peptides were serially diluted with a solution containing 0.01% acetic acid and 0.2% bovine serum albumin (BSA, Sigma) in 96-well plates. The bacteria grew to the mid-log phase and then were dissolved in MHB at concentration of 2–7 × 10^5 CFU/ml. The peptides and bacterial solution were mixed in equal volume in a 37°C incubator for 24 h. […] Mueller-Hinton broth with microorganisms was used as the positive control, and the pure broth was used as the negative control. The experiment was repeated at least three times independently."}, "[12]": {"system": "E. coli K99", "conditions": "MHB, 2–7 × 10^5 CFU/ml, 37°C, 24 h, no turbidity, at least three independent repeats", "description": "as §2, §3"}, "[13]": {"system": "S. typhimurium 14028", "test": "MIC, modified microtiter dilution", "type": "cell-based, Salmonella typhimurium", "conditions": "MHB, 2–7 × 10^5 CFU/ml, 37°C, 24 h, no turbidity, at least three independent repeats", "description": "as §1"}, "[14]": {"system": "S. typhimurium 7731", "test": "MIC, modified microtiter dilution", "type": "cell-based, Salmonella typhimurium", "conditions": "MHB, 2–7 × 10^5 CFU/ml, 37°C, 24 h, no turbidity, at least three independent repeats", "description": "as §1"}, "[15]": {"system": "S. aureus 29213", "test": "MIC in the presence of physiological salts", "type": "cell-based, Staphylococcus aureus", "conditions": "three independent repeats, unit not given in Table 4", "protocol": "as §1\nThe MIC of peptides was determined in the presence of salts at physiological concentrations (150 mM NaCl, 4.5 mM KCl, 6 μM NH4Cl, 8 μM ZnCl2, 1 mM MgCl2, 2 mM CaCl2, and 4 μM FeCl3) as described previously ([Dong et al., 2014]). All experiments were performed three times independently."}, "[16]": {"system": "E. coli UB1005", "test": "MIC, modified microtiter dilution", "type": "cell-based, Escherichia coli", "conditions": "MHB, 2–7 × 10^5 CFU/ml, 37°C, 24 h, no turbidity, at least three independent repeats", "description": "as §1"}, "[17]": {"system": "E. coli 25922", "test": "MIC, modified microtiter dilution", "type": "cell-based, Escherichia coli", "conditions": "MHB, 2–7 × 10^5 CFU/ml, 37°C, 24 h, lowest concentration with no turbidity, at least three independent repeats", "description": "as §1"}, "[18]": {"system": "MRSA 43300", "type": "cell-based, Staphylococcus aureus", "conditions": "MHB, 2–7 × 10^5 CFU/ml, 37°C, 24 h, no turbidity, at least three independent repeats", "description": "as §1"}},
  "note": "No end group written: not given here.",
  "data": [
    {"substance": "RWWWLL-NH2 [Peptide S7]", "values": [
      {"measurement": "MIC L. plantarum 8014", "setting": "[1]", "result": ">64", "unit": "µM"},
      {"measurement": "MIC L. rhamnosus 1.0385", "setting": "[2]", "result": ">64", "unit": "µM"},
      {"measurement": "MIC L. rhamnosus 7469", "setting": "[3]", "result": ">64", "unit": "µM"},
      {"measurement": "MIC L. rhamnosus 1.0911", "setting": "[4]", "result": ">64", "unit": "µM"},
      {"measurement": "MIC L. rhamnosus 1.0936", "setting": "[5]", "result": ">64", "unit": "µM"},
      {"measurement": "MIC S. aureus 25923", "setting": "[6]", "result": 8, "unit": "µM"},
      {"measurement": "MIC S. aureus 29213", "setting": "[7]", "result": 8, "unit": "µM"},
      {"measurement": "MIC P. aeruginosa 27853", "setting": "[8]", "result": ">64", "unit": "µM"},
      {"measurement": "hemolytic activity against hRBCs", "setting": "[9]", "result": "barely exhibited hemolysis effects"},
      {"measurement": "MIC S. pullorum 7913", "setting": "[10]", "result": ">64", "unit": "µM"},
      {"measurement": "MIC E. coli K88", "setting": "[11]", "result": 16, "unit": "µM"},
      {"measurement": "MIC E. coli K99", "setting": "[12]", "result": 16, "unit": "µM"},
      {"measurement": "MIC S. typhimurium 14028", "setting": "[13]", "result": 32, "unit": "µM"},
      {"measurement": "MIC S. typhimurium 7731", "setting": "[14]", "result": 16, "unit": "µM"},
      {"measurement": "MIC against S. aureus 29213, FeCl3", "setting": "[15]; 4 μM FeCl3", "result": 8, "unit": "µM"},
      {"measurement": "MIC against S. aureus 29213, NH4Cl", "setting": "[15]; 6 μM NH4Cl", "result": 8, "unit": "µM"},
      {"measurement": "MIC against S. aureus 29213, ZnCl2", "setting": "[15]; 8 μM ZnCl2", "result": 4, "unit": "µM"},
      {"measurement": "MIC against S. aureus 29213, MgCl2", "setting": "[15]; 1 mM MgCl2", "result": 8, "unit": "µM"},
      {"measurement": "MIC against S. aureus 29213, CaCl2", "setting": "[15]; 2 mM CaCl2", "result": 16, "unit": "µM"},
      {"measurement": "MIC against S. aureus 29213, KCl", "setting": "[15]; 4.5 mM KCl", "result": 8, "unit": "µM"},
      {"measurement": "MIC against S. aureus 29213, NaCl", "setting": "[15]; 150 mM NaCl", "result": 8, "unit": "µM"},
      {"measurement": "MIC E. coli UB1005", "setting": "[16]", "result": 16, "unit": "µM"},
      {"measurement": "MIC E. coli 25922", "setting": "[17]", "result": 16, "unit": "µM"},
      {"measurement": "MIC MRSA 43300", "setting": "[18]", "result": 8, "unit": "µM"}
    ]}
  ]
}
